Species: Rattus norvegicus
Experiment: Open TG-GATES - Regimen: Daily Repeat
Type: toxicity, organism-based, Sprague-Dawley
Parameters: regimen Daily Repeat, gender Male, age 6 weeks
Conditions: in vivo, po, route gavage; for APTT / Bas / Eos / Fbg / Hb / Ht / Lym / MCH / MCHC / MCV / Mono / Neu / PT / Plat / RBC / Ret / WBC: tissue Blood; for KIDNEY_L / KIDNEY_R / KIDNEY_TOTAL: tissue Kidney; for LIVER: tissue Liver; for A/G / ALP / ALT / AST / BUN / CRE / Ca / Cl / DBIL / GLC / IP / K / LDH / Na / PL / RALB / TBIL / TC / TG / TP / gamma-GTP: tissue Plasma
[1] = 120 mg/kg, 72 h, dose level Middle, time 3 day
[2] = 120 mg/kg, […], dose level Middle, time 7 day
[3] = 120 mg/kg, […], dose level Middle, time 14 day
[4] = 120 mg/kg, […], dose level Middle, time 28 day
[5] = 400 mg/kg, 72 h, dose level High, time 3 day
[6] = 400 mg/kg, […], dose level High, time 7 day
[7] = 400 mg/kg, […], dose level High, time 14 day
[8] = 400 mg/kg, […], dose level High, time 28 day

## COc1ccc(Cc2nccc3cc(OC)c(OC)cc23)cc1OC [PAPAVERINE]
[1]
  TERMINAL_BW: 245.2 g
  APTT: 22.2 s
  Bas: 0%
  Eos: 1%
  Fbg: 316.2 mg/dL
  Hb: 13.6 g/dL
  Ht: 40.6%
  Lym: 77.8%
  MCH: 20.8 pg
  MCHC: 33.5%
  MCV: 62.1 fL
  Mono: 2.6%
  Neu: 17.8%
  PT: 15.3 s
  Plat: 116.6 x10_4/uL
  RBC: 654.2 x10_4/ul
  Ret: 6.2%
  WBC: 84.6 x10_2/uL
  KIDNEY_L: 1 g
  KIDNEY_R: 1 g
  KIDNEY_TOTAL: 2 g
  LIVER: 11.7 g
  A/G: 1.2
  ALP: 1731.2 IU/L
  ALT: 43 IU/L
  AST: 72 IU/L
  BUN: 15.8 mg/dL
  CRE: 0.2 mg/dL
  Ca: 10.9 mg/dL
  Cl: 106.8 meq/L
  DBIL: 0 mg/dL
  GLC: 195.8 mg/dL
  IP: 7.3 mg/dL
  K: 4.3 meq/L
  LDH: 179.2 IU/L
  Na: 142.6 meq/L
  PL: 144 mg/dL
  RALB: 3.1 g/dL
  TBIL: 0.006 mg/dL
  TC: 77.2 mg/dL
  TG: 98.6 mg/dL
  TP: 5.7 g/dL
  gamma-GTP: 1.2 IU/L
[2]
  TERMINAL_BW: 287 g
  APTT: 21.9 s
  Bas: 0%
  Eos: 1%
  Fbg: 314.8 mg/dL
  Hb: 13.4 g/dL
  Ht: 39.9%
  Lym: 76.8%
  MCH: 21 pg
  MCHC: 33.6%
  MCV: 62.6 fL
  Mono: 2.8%
  Neu: 18.6%
  PT: 15 s
  Plat: 122.9 x10_4/uL
  RBC: 638.8 x10_4/ul
  Ret: 6.6%
  WBC: 106.6 x10_2/uL
  KIDNEY_L: 1.2 g
  KIDNEY_R: 1.2 g
  KIDNEY_TOTAL: 2.4 g
  LIVER: 13.8 g
  A/G: 1.2
  ALP: 1633.8 IU/L
  ALT: 45.4 IU/L
  AST: 68.8 IU/L
  BUN: 17.2 mg/dL
  CRE: 0.2 mg/dL
  Ca: 10.8 mg/dL
  Cl: 106 meq/L
  DBIL: 0 mg/dL
  GLC: 197.4 mg/dL
  IP: 7.2 mg/dL
  K: 4 meq/L
  LDH: 173.4 IU/L
  Na: 141.4 meq/L
  PL: 149 mg/dL
  RALB: 3.1 g/dL
  TBIL: 0 mg/dL
  TC: 73.4 mg/dL
  TG: 123.2 mg/dL
  TP: 5.6 g/dL
  gamma-GTP: 2.2 IU/L
[3]
  TERMINAL_BW: 331.7 g
  APTT: 22.2 s
  Bas: 0%
  Eos: 1%
  Fbg: 341.6 mg/dL
  Hb: 14.1 g/dL
  Ht: 42.1%
  Lym: 71.2%
  MCH: 20 pg
  MCHC: 33.6%
  MCV: 59.7 fL
  Mono: 3.4%
  Neu: 22.8%
  PT: 15.1 s
  Plat: 117.8 x10_4/uL
  RBC: 706.4 x10_4/ul
  Ret: 5.2%
  WBC: 121.3 x10_2/uL
  KIDNEY_L: 1.3 g
  KIDNEY_R: 1.3 g
  KIDNEY_TOTAL: 2.6 g
  LIVER: 14.4 g
  A/G: 1.1
  ALP: 1378.8 IU/L
  ALT: 48 IU/L
  AST: 75.4 IU/L
  BUN: 18.6 mg/dL
  CRE: 0.2 mg/dL
  Ca: 10.5 mg/dL
  Cl: 106.6 meq/L
  DBIL: 0 mg/dL
  GLC: 191 mg/dL
  IP: 7.2 mg/dL
  K: 4 meq/L
  LDH: 166 IU/L
  Na: 142.6 meq/L
  PL: 156 mg/dL
  RALB: 3.1 g/dL
  TBIL: 0.014 mg/dL
  TC: 81.8 mg/dL
  TG: 109.8 mg/dL
  TP: 5.8 g/dL
  gamma-GTP: 2.4 IU/L
[4]
  TERMINAL_BW: 380.1 g
  APTT: 23.2 s
  Bas: 0%
  Eos: 1%
  Fbg: 339.2 mg/dL
  Hb: 14.3 g/dL
  Ht: 43.4%
  Lym: 77.6%
  MCH: 18.5 pg
  MCHC: 33%
  MCV: 56.1 fL
  Mono: 2.8%
  Neu: 17%
  PT: 15.8 s
  Plat: 100.4 x10_4/uL
  RBC: 773 x10_4/ul
  Ret: 2.7%
  WBC: 122.5 x10_2/uL
  KIDNEY_L: 1.4 g
  KIDNEY_R: 1.4 g
  KIDNEY_TOTAL: 2.8 g
  LIVER: 15.7 g
  A/G: 1.1
  ALP: 1042.8 IU/L
  ALT: 40.4 IU/L
  AST: 66.4 IU/L
  BUN: 18.2 mg/dL
  CRE: 0.2 mg/dL
  Ca: 10.1 mg/dL
  Cl: 106.2 meq/L
  DBIL: 0 mg/dL
  GLC: 191.4 mg/dL
  IP: 6 mg/dL
  K: 3.9 meq/L
  LDH: 120 IU/L
  Na: 141.8 meq/L
  PL: 129.8 mg/dL
  RALB: 3.1 g/dL
  TBIL: 0.01 mg/dL
  TC: 65.2 mg/dL
  TG: 119.8 mg/dL
  TP: 5.9 g/dL
  gamma-GTP: 2 IU/L
[5]
  TERMINAL_BW: 239.4 g
  APTT: 23.7 s
  Bas: 0%
  Eos: 1%
  Fbg: 314.4 mg/dL
  Hb: 13.5 g/dL
  Ht: 39.4%
  Lym: 73%
  MCH: 20.9 pg
  MCHC: 34.2%
  MCV: 61.1 fL
  Mono: 2%
  Neu: 23%
  PT: 15 s
  Plat: 111.3 x10_4/uL
  RBC: 644.8 x10_4/ul
  Ret: 5%
  WBC: 85.7 x10_2/uL
  KIDNEY_L: 1 g
  KIDNEY_R: 1.1 g
  KIDNEY_TOTAL: 2.1 g
  LIVER: 11.8 g
  A/G: 1.3
  ALP: 1542 IU/L
  ALT: 48.4 IU/L
  AST: 75.8 IU/L
  BUN: 16.6 mg/dL
  CRE: 0.1 mg/dL
  Ca: 10.9 mg/dL
  Cl: 107.4 meq/L
  DBIL: 0 mg/dL
  GLC: 179.8 mg/dL
  IP: 7.3 mg/dL
  K: 4.3 meq/L
  LDH: 160.2 IU/L
  Na: 143 meq/L
  PL: 148.4 mg/dL
  RALB: 3.1 g/dL
  TBIL: 0.008 mg/dL
  TC: 83 mg/dL
  TG: 78.4 mg/dL
  TP: 5.6 g/dL
  gamma-GTP: 1.4 IU/L
[6]
  TERMINAL_BW: 267.4 g
  APTT: 24.2 s
  Bas: 0%
  Eos: 0.4%
  Fbg: 337.4 mg/dL
  Hb: 13.6 g/dL
  Ht: 40.4%
  Lym: 74.4%
  MCH: 20.9 pg
  MCHC: 33.7%
  MCV: 61.9 fL
  Mono: 3%
  Neu: 20.8%
  PT: 15.2 s
  Plat: 126.4 x10_4/uL
  RBC: 652 x10_4/ul
  Ret: 5.8%
  WBC: 107.2 x10_2/uL
  KIDNEY_L: 1.2 g
  KIDNEY_R: 1.2 g
  KIDNEY_TOTAL: 2.3 g
  LIVER: 13.4 g
  A/G: 1.2
  ALP: 1249.6 IU/L
  ALT: 42.6 IU/L
  AST: 68 IU/L
  BUN: 18 mg/dL
  CRE: 0.2 mg/dL
  Ca: 10.9 mg/dL
  Cl: 107 meq/L
  DBIL: 0 mg/dL
  GLC: 191.8 mg/dL
  IP: 7.2 mg/dL
  K: 4.2 meq/L
  LDH: 164 IU/L
  Na: 142 meq/L
  PL: 149.4 mg/dL
  RALB: 3.1 g/dL
  TBIL: 0 mg/dL
  TC: 79.4 mg/dL
  TG: 91 mg/dL
  TP: 5.8 g/dL
  gamma-GTP: 2 IU/L
[7]
  TERMINAL_BW: 315.9 g
  APTT: 24.2 s
  Bas: 0%
  Eos: 1%
  Fbg: 321.6 mg/dL
  Hb: 14.1 g/dL
  Ht: 42.3%
  Lym: 75.4%
  MCH: 19.3 pg
  MCHC: 33.3%
  MCV: 58.2 fL
  Mono: 2.8%
  Neu: 19.2%
  PT: 15.4 s
  Plat: 128.5 x10_4/uL
  RBC: 728.6 x10_4/ul
  Ret: 4.3%
  WBC: 108.5 x10_2/uL
  KIDNEY_L: 1.4 g
  KIDNEY_R: 1.4 g
  KIDNEY_TOTAL: 2.7 g
  LIVER: 14.4 g
  A/G: 1.1
  ALP: 1494.6 IU/L
  ALT: 46.4 IU/L
  AST: 71 IU/L
  BUN: 17 mg/dL
  CRE: 0.2 mg/dL
  Ca: 10.5 mg/dL
  Cl: 106.8 meq/L
  DBIL: 0 mg/dL
  GLC: 183 mg/dL
  IP: 7.5 mg/dL
  K: 4.1 meq/L
  LDH: 142.6 IU/L
  Na: 142.8 meq/L
  PL: 143.8 mg/dL
  RALB: 3.1 g/dL
  TBIL: 0.02 mg/dL
  TC: 73.6 mg/dL
  TG: 81.8 mg/dL
  TP: 5.8 g/dL
  gamma-GTP: 2.4 IU/L
[8]
  TERMINAL_BW: 373.4 g
  APTT: 25.6 s
  Bas: 0%
  Eos: 1%
  Fbg: 328 mg/dL
  Hb: 14.4 g/dL
  Ht: 43.7%
  Lym: 71.8%
  MCH: 18.6 pg
  MCHC: 33%
  MCV: 56.6 fL
  Mono: 2.2%
  Neu: 23.8%
  PT: 15.9 s
  Plat: 109.9 x10_4/uL
  RBC: 772.5 x10_4/ul
  Ret: 2.6%
  WBC: 94.3 x10_2/uL
  KIDNEY_L: 1.5 g
  KIDNEY_R: 1.5 g
  KIDNEY_TOTAL: 2.9 g
  LIVER: 16.5 g
  A/G: 1.1
  ALP: 1162 IU/L
  ALT: 47 IU/L
  AST: 69.5 IU/L
  BUN: 19.8 mg/dL
  CRE: 0.2 mg/dL
  Ca: 10.3 mg/dL
  Cl: 106.2 meq/L
  DBIL: 0 mg/dL
  GLC: 182 mg/dL
  IP: 6.6 mg/dL
  K: 4 meq/L
  LDH: 141 IU/L
  Na: 142.5 meq/L
  PL: 146.2 mg/dL
  RALB: 3.2 g/dL
  TBIL: 0.0075 mg/dL
  TC: 82.2 mg/dL
  TG: 86 mg/dL
  TP: 6.1 g/dL
  gamma-GTP: 2.2 IU/L
